Test results reported in patent US8106092B2, “Treatment of solid cancers” (priority 2004, dated 2012).

Test system: CT26 colon carcinoma cells
Experiment: PEP005-mediated cure of primaries plus peptide vaccine, CT26 colon carcinoma model
Format: in vivo, Balb/c mice
Settings: Log rank p=0.011 (PEP005) and =0.013 (Vaccine)
Experimental: FIG. 14 is a graphical representation combining PEP005-mediated cure of primaries and cancer vaccination in the CT26 colon carcinoma model. (A) on d−3 […] mice were inoculated with 10^5 CT26 cells on the left flank (primary tumor) and 5×10^3 CT26 cells on the right flank (secondary tumor). On dO the primary CT26 tumors, which has reached 16.8+SD 3.2 mm^2 were cured with i.t. injections of 25 μg of PEP005 formulated in PEG400. On d3 and d10 mice received peptide vaccine containing the SPSYVYHQF [SEQ ID NO:5] epitope (n=9, PEP005+Vaccine). […] A third group was inoculated with secondary tumors only and received the vaccine (n=11, Vaccine), and the control group was given only secondary tumors and received no treatment (n=12, Controls). Animals were culled when the secondary tumors reached 100 mm^2.
CT26 colon carcinoma cells [CRL-2638] (Ali et al, 2002 supra) were grown s.c. in 6-10 week old female Balb/c mice.
The cancer vaccine comprised the gp70 A-1 peptide epitope SPSYVYHQF [SEQ ID NO:5] […]
To determine whether the effects seen in the B16 models could be repeated in a different tumor model and using a different cancer vaccine, four groups of Balb/c mice were established using the CT26 colon carcinoma model (Ali et al, J Immunol 168:3512-3519, 2002). […] The growth of secondary tumors was monitored as above.

SMILES: C/C=C(/C)C(=O)O[C@H]1C(C)=C[C@]23C(=O)[C@@H](C=C(CO)[C@@H](O)[C@]12O)[C@H]1[C@@H](C[C@H]3C)C1(C)C [PEP005, ingenol-3-angelate]
- growth of secondaries vs no treatment controls: significantly reduced the growth of secondaries
